# Source: patent publication US20020034725A1, “SENSITIZATION OF CELLS TO RADIATION AND AND CHEMOTHERAPY” (priority 1996, published 2002)
# Experiments:
# [1] = target: FTase (Homo sapiens, UniProt P49354+P49356); conditions: cited from earlier work
# [2] = system: H-ras; conditions: cited from earlier work
# [3] = system: H-ras^v12; assay: Western blot of H-ras farnesylation in H-ras transformed REF cells (3.7, 4R, 5R); type: cell-based, rat; conditions: 5R cells, dose of 32 μM
# Excerpt: (§1) The oncogene-transfected cells used in this study were all derived from early passage rat embryo fibroblast (REF) by transfection with the pEJ plasmid containing the H-ras gene isolated from the EJ bladder carcinoma. This vector was introduced by calcium phosphate DNA transfer into primary REF, either alone or together with the pMC29 vector containing v-myc. One clone containing both the introduced H-ras gene and the v-myc genes is 3.7 (McKenna et al., 1990, Cancer Res. 50:97-102). 4R and 5R cells were obtained as rare transformants after transfection with the pEJ plasmid alone (McKenna et al., 1993, supra). MR4 cells were immortalized by transfection with an expression vector comprising v-myc linked to a neomycin-resistant selectable marker (McKenna et al., 1991, Radiat. Res. 125:283-287). REF-GG cells were obtained by transforming REF cells with a chimeric H-ras(v12) in which the CAAX motif is CVLL. All cell lines were mycoplasma free.
# (§2) Cells were lysed in culture dishes with 1 x reducing Laemmli sample buffer. Samples were boiled, sheared and clarified by centrifugation at 14,000 rpm in a microfuge before storage at −20° C. Samples containing equal amounts of protein were separated on a 12% SDS polyacrylamide gel and electrophoretically transferred to nitrocellulose membranes. Membranes were blocked for 1-2 hours in PBS containing 0.1% Tween-20 and 5% powdered milk before antibody addition. Membranes were probed with monoclonal pan-ras antibody AB-4 (Oncogene Science, Uniondale, N.Y.) at a concentration of 0.5 μg/ml, or with monoclonal H-ras antibody LA069 (1:5000 dilution; Quality Biotech, Camden, N.J.). Detection of protein was accomplished using the ECL chemiluminescence kit (Amersham, Arlington Heights, Ill.). Images were digitized using an Arcus II scanner, and figures were assembled using Adobe Photoshop 3.0.
# Transformed REF cells derived from the R5 cell line were treated with 5 μm FTI-277 to establish a time course for the accumulation of unfarnesylated H-ras. Prenylated forms of ras migrate more rapidly than unprenylated ras on SDSpolyacrylamide gels (Gutierrez et al., 1989, EMBO J. 8:1093-1098; Farh et al., 1995, Arch. Biochem. Biophys. 18:113-121). This shift in motility was used to assess the prenylation status of H-ras after farnesyltransferase inhibitor treatment.
# [4] = system: H-ras^v12 CVLL; assay: Western blot of prenylation of chimeric H-ras in REF-GG cells; type: cell-based, rat; conditions: 24 hours, preliminary results
# Excerpt: as §1
# Cells were lysed in culture dishes with 1 x reducing Laemmli sample buffer. Samples were boiled, sheared and clarified by centrifugation at 14,000 rpm in a microfuge before storage at −20° C. Samples containing equal amounts of protein were separated on a 12% SDS polyacrylamide gel and electrophoretically transferred to nitrocellulose membranes. […]
# [5] = system: wild type c-H-ras; assay: Western blot of ras farnesylation in untransformed REF and MR4 cells; type: cell-based, rat; conditions: MR4 cells
# Excerpt: as §1, §2
# [6] = system: Rap1A; conditions: cited from earlier work; for inhibition of Rap1A processing: whole cells
# [7] = target: GGTase I (Homo sapiens, UniProt P49354+P53609); conditions: cited from earlier work
# [8] = system: REF-GG cells; assay: SF2 by limiting dilution analysis of clonogens; type: cell-based, rat; conditions: 8 μM GGTI-298
# Experimental: FIG. 14B comprises two graphs depicting clonogenic survival of REF-GG cells following treatment with GGTI-298 and irradiation. REF-GG cells were plated at 1 to 5 cells per well in microtiter plates in the absence (top panel) or presence (bottom panel) of 8 μM of the geranylgeranyltransferase inhibitor, GGTI-298. Cells were then irradiated with 2 Gray or were mock irradiated. Cells were re-fed after 24 hours with medium that contained no inhibitor, thus diluting the inhibitor to 0.8 μM. These cells were then incubated for two weeks prior to scoring for colony formation. The data are presented as the natural log of the fraction of negative wells. The surviving fraction at 2 Gray was determined from the differences in the slopes obtained by linear regression of analysis of irradiated and unirradiated cells. The surviving fraction at 2 Gray calculated for cells irradiated after GGTI-298 treatment was 0.64. Control cell surviving fraction after 2 Gray was 0.91. The correlation coefficient for linear regression analysis (r^2) was greater than 0.95 in all cases.
# Cells were irradiated with the indicated doses of ionizing radiation and were treated with FTI-277 for 24 hours after irradiation (FIG. 14A). […] The shoulders of the survival curves were reduced as were the overall slopes of the survival curves. […]
# [9] = system: K-ras; assay: Western blot of K-ras prenylation in SW480 and Panc-1 cells; type: cell-based, human; conditions: 8 μM GGTI-298 alone
# Experimental: FIG. 17A is an image of a Western blot depicting inhibition by FTI-277 of K-ras prenylation in human SW480 colon carcinoma cells. SW480 cells were treated with the indicated concentrations of FTI-277 (μM) for 48 hours. Samples were harvested and cell lysates were analyzed by Western blotting using either a H-ras monoclonal antibody (top) or a K-ras monoclonal antibody (bottom). Arrows indicate unfarnesylated ras bands.
# FIG. 18A is an image of a Western blot depicting the specific inhibition of K-ras prenylation by combined FTI-277 and GGTI-298 treatment. Log phase cultures of human pancreatic carcinoma cells (Panc-1) and colon carcinoma cells (SW480) were treated with 5 μM FTI and 8 μM GGTI 298 for 48 hours. Cell samples were then harvested and cell lysates were prepared for Western blot analysis using monoclonal antibodies to K-ras and nuclear lamin B. The electrophoretic mobility of the K-ras mutant in SW480 is slower than that of the mutant K-ras in Panc-1 cells.
molecule,measurement,setting,value
2-hydroxyfarnesylphosphonic acid,FTase inhibition,[1],inhibit FTase
same,H-Ras processing,[2],inhibits H-Ras processing
COC(=O)[C@H](CCSC)NC(=O)[C@H](/C=C\[C@@H](/C=C/[C@@H](N)CS)C(C)C)Cc1ccccc1 [B1086],FTase inhibition,[1],capable of inhibiting FTase
CSCC[C@H](NC(=O)c1ccc(NC[C@@H](N)CS)cc1)C(=O)O [FTI-249],FTase inhibition,[1],potent FTase inhibitor
CSCC[C@H](NC(=O)c1ccc(NC[C@@H](N)CS)cc1-c1ccccc1)C(=O)O [FTI-276],FTase inhibition,[1],inhibited Ftase activity
COC(=O)[C@H](CC(C)C)NC(=O)c1ccc(NC[C@@H](N)CS)cc1-c1ccccc1 [GGTI-286],inhibition of farnesylated H-ras^v12 (CVLS),[3],only partially inhibited
same,lowest dose with effective inhibition of geranylgeranylation of chimeric H-ras^v12,[4],4 µM
same,migration of endogenous wild-type c-H-ras,[5],no effect on the migration of this protein
same,inhibition of Rap1A processing,[6],potent inhibitor of posttranslational processing of Rap1A
CC(C)C[C@H](NC(=O)c1ccc(NC[C@@H](N)CS)cc1-c1ccccc1)C(=O)O [GGTI-287],increase in potency of inhibition of GGTase I,[7]; relative to GGTI-279,20 fold
same,increase in potency of inhibition of FTase,[1]; relative to GGTI-279,20 fold
CC(C)C[C@H](NC(=O)c1ccc(NC[C@@H](N)CS)cc1-c1cccc2ccccc12)C(=O)O [GGTI-297],GGTase I inhibition,[7],inhibitors of GGTase I and FTase
same,"potency, less potent than GGTI-287",[7],10 fold
same,selectivity for GGTase I over FTase,[7]; in vitro,5 fold
same,FTase inhibition,[1],inhibitors of GGTase I and FTase
COC(=O)[C@H](CC(C)C)NC(=O)c1ccc(NC[C@@H](N)CS)cc1-c1cccc2ccccc12 [GGTI-298],SF2 (surviving fraction at 2 Gray),[8],0.64
same,GGTase I inhibition,[7],inhibitors of GGTase I and FTase
same,Rap1A protein processing,[6]; concentration of 10 μM,completely inhibiting Rap1A protein processing
same,inhibition of Rap1A processing,[6],as potent as GGTI-286
same,prenylation of K-ras,[9],no effect on prenylation of K-ras
same,FTase inhibition,[1],inhibitors of GGTase I and FTase
same,H-ras processing,[2]; concentration of 10 μM,without affecting H-ras processing
"CC[C@H](C)[C@@H](CO[C@@H](Cc1ccccc1)C(=O)N[C@@H](CCS(C)(=O)=O)C(=O)OC)NC[C@@H](N)CS [L-739,749]",FTase inhibition,[1],very potent inhibitors of FTase
"CC[C@H](C)[C@@H](CO[C@@H](Cc1ccccc1)C(=O)N[C@@H](CCS(C)(=O)=O)C(=O)O)NC[C@@H](N)CS [L-739,750]",FTase inhibition,[1],very potent inhibitors of FTase
"CC[C@H](C)[C@@H](CO[C@@H](Cc1ccccc1)C(=O)N[C@@H](CCS(C)(=O)=O)C(=O)OC(C)C)NC[C@@H](N)CS [L-744,832]",farnesylation of endogenous H-ras,[5]; highest dose used,less susceptible to farnesylation inhibition
"COCC[C@@H]1CN(C(=O)c2cccc3ccccc23)CCN1C[C@H](N)CS [L-745,631]",mode of FTase inhibition,[1],competitive with respect to H-Ras binding to FTase
same,FTase activity in whole cells,[2]; whole cells,inhibits FTase activity in whole cells
O=C(Cc1ccncc1)N1CCC(=C2c3ccc(Cl)cc3CCc3cccnc32)CC1 [SCH-44342],mode of FTase inhibition,[1],competitive inhibitor of FTase
(bz-(0)-His-Tyr-Ser [PD-15169],FTase inhibition,[1],inhibits FTase activity
farnesylmethyl-hydroxyphosphinylmethyl phosphoric acid,FTase inhibition,[1],inhibit FTase
